Where two headings read alike, the source gives them in different places.
How the values were obtained:
[1] = molecular target: T1, 20S proteasome extracted from rat liver (CT-L) (Rattus norvegicus, UniProt P18421+P28075); experiment: inhibition of 20S proteasome, CT-L activity (fluorescent peptide); type: biochemical; settings: rat liver 20S proteasome, 37° C., 1 h, read-out: inhibition rates (%) CT-L
T1 construct: 20S proteasome extracted from rat liver; from tissue; host or cells: rat liver
Description: (§1) 1 μg of 20S proteasome extracted from rat liver was incubated with a 100 μL solution containing various concentrations of the present compounds, 50 μM fluorescent peptides and 20 mM Tris-HCl at 37° C. for 1 h, respectively. […] 0.1% DMSO was used as a solvent control. Compared with the fluorescence of solvent control, an inhibition rate or IC50 value was calculated.

[2] = molecular target: T2, 20S proteasome extracted from rat liver (PGPH) (Rattus norvegicus, UniProt P28073+Q9JHW0); experiment: inhibition of 20S proteasome, PGPH activity (fluorescent peptide); type: biochemical; settings: for inhibition at 0.2 µM / inhibition at 2 µM / inhibition at 20 µM: rat liver 20S proteasome, 37° C., 1 h, read-out: inhibition rates (%) PGPH
T2 construct: 20S proteasome extracted from rat liver; from tissue; host or cells: rat liver
Description: as §1

[3] = tested on: MCF-7, breast cancer; experiment: preliminary anti-tumor screening in vitro, SRB method; type: cell-based; settings: Homo sapiens, read-out: inhibition rates (%) MCF-7; for inhibition at 0.1 µM: MCF7, 0.1 μM; for inhibition at 1 µM: MCF7, 1 μM; for inhibition at 10 µM: MCF7, 10 μM
In short: (§2)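 Inhibition rates measured at 0.1, 1 or 10 μM compound; cell growth read by MTT for Hela, SRB for BGC-823, MCF-7 and A549.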

[4] = tested on: BGC-823, liver cancer; experiment: as above; type: cell-based; settings: Homo sapiens, read-out: inhibition rates (%) BGC-823
In short: as §2

[5] = tested on: A549, human lung cancer; experiment: as above; type: cell-based; settings: read-out: inhibition rates (%) A549
In short: as §2

[6] = molecular target: T3, 20S proteasome extracted from rat liver (T-L) (Rattus norvegicus, UniProt P40112+Q9JHW0); experiment: inhibition of 20S proteasome, T-L activity (fluorescent peptide); type: biochemical; settings: for inhibition at 0.2 µM / inhibition at 2 µM / inhibition at 20 µM: rat liver 20S proteasome, 37° C., 1 h, read-out: inhibition rates (%) T-L
T3 construct: 20S proteasome extracted from rat liver; from tissue; host or cells: rat liver
Description: as §1

[7] = tested on: Hela, human cervical carcinoma; experiment: preliminary anti-tumor screening in vitro, MTT method; type: cell-based; settings: read-out: inhibition rates (%) Hela
In short: as §2

[8] = tested on: HepG2 liver cancer cells; experiment: anti-tumor activity in vitro (IC50), MTT; type: cell-based; settings: Homo sapiens, 72 h
Description: (§3) Cancer cells were cultured in vitro. When cell growth reached logarithmic phase, the cells were collected and centrifuged at 1000 rpm for 5 min, before the supernate was removed and the cells were suspended in a moderate amount of medium, and then the concentration of cell was adjusted to 3.5×10^4/mL. The cell suspension was added into a 96-well plate with 100 μL per well and cultured in a cell incubator (37° C., 5% CO2) for 24 h. Then test drugs of different end concentrations were added, and the negative control group was added DMSO (end concentration was 0.5%), while each group afforded three repetitive holes. After cultivation for another 72 h in the cell incubator, a solution containing 5 mg/ml MTT (20 μL) was added into each well and the 96-well plate was placed at 37° C. for 3 h. To each well was added 150 μL DMSO, after oscillation in a shaking table for 5 min, the optical density (OD) values at 492 nm/620 nm were measured. IC50 values were calculated by Prism Graphpad statistical software.

[9] = tested on: MGC803 stomach cancer cells; experiment: anti-tumor activity in vitro (IC50), MTT; type: cell-based; settings: Homo sapiens, MGC-803, MTT, 72 h
Description: as §3

[10] = tested on: Hela; experiment: anti-tumor activity in vitro (IC50), MTT; type: cell-based; settings: Homo sapiens, 72 h
Description: as §3

[11] = liver cancer cells, read-out: IC50 (μM) HepG2
[12] = stomach cancer cells, read-out: IC50 (μM) MGC803

SMILES	inhibition at 0.2 µM [1] [%]	inhibition at 2 µM [1] [%]	inhibition at 20 µM [1] [%]	inhibition at 0.2 µM [2] [%]	inhibition at 2 µM [2] [%]	inhibition at 20 µM [2] [%]	inhibition at 0.1 µM [3] [%]	inhibition at 1 µM [3] [%]	inhibition at 10 µM [3] [%]	inhibition at 0.1 µM [4] [%]	inhibition at 1 µM [4] [%]	inhibition at 10 µM [4] [%]	inhibition at 0.1 µM [5] [%]	inhibition at 1 µM [5] [%]	inhibition at 10 µM [5] [%]	inhibition at 0.2 µM [6] [%]	inhibition at 2 µM [6] [%]	inhibition at 20 µM [6] [%]	inhibition at 0.1 µM [7] [%]	inhibition at 1 µM [7] [%]	other results
CC(C)C[C@H](NC(=O)N[C@@H](Cc1ccccc1)C(=O)Nc1cccc(OCc2ccccc2)c1)B1OC2C[C@H]3C[C@H](C3(C)C)[C@@]2(C)O1 (stereo partly drawn) [Example 5, N-L-leucine borate pinanediol ester-N′-(3-benzyloxy-phenylcarbamoyl)-L-phenylalanine-urea]	-17.8	-15.1	-3.13	2.67	3.15	9.71	6.37	8.84	8.44	5.47	3.19	8.66	3.25	10.3	30.3	-5.23	-1.52	0.968	7.42	10.3	melting point: 78 to 80 °C; inhibition at 10 µM [7]: 21.8%
CC(C)C[C@H](NC(=O)N[C@@H](Cc1ccccc1)C(=O)Nc1cnccn1)B1OC2C[C@H]3C[C@H](C3(C)C)[C@@]2(C)O1 (stereo partly drawn) [Example 7, N-L-leucine borate pinanediol ester-N′-(pyrazin-2-ylcarbamoyl)-L-phenylalanine-urea]	23.4	47.2	82.6	5.76	1.95	0.485	4.81	7.4	11.7	2.21	0.62	6.88	-1.53	2.54	15.5	-16.5	-12.6	25.3	0.48	5.11	melting point: 93 to 95 °C; inhibition at 10 µM [7]: 14.9%
COc1ccc(NC(=O)[C@H](Cc2ccccc2)NC(=O)N[C@@H](CC(C)C)B2OC3C[C@H]4C[C@H](C4(C)C)[C@@]3(C)O2)cc1 (stereo partly drawn) [Example 9, N-L-leucine borate pinanediol ester-N′-(p-methoxy-phenylcarbamoyl)-L-phenylalanine-urea]	-12.2	44.9	76.8	1.67	6.26	34.1	6.66	11.7	13.8	8.33	7.84	14.7	4.05	10.3	36.2	1.54	9	21.5	11.8	14.3	melting point: 78 to 80 °C; inhibition at 10 µM [7]: 32.1%
CC(C)C[C@H](NC(=O)[C@H](Cc1ccccc1)NC(=O)NCc1ccccc1)B(O)O [Example 14, N-L-phenylalanyl-L-leucine borate-N′-benzylamine-urea]	82.1	96.1	98.9	6.46	84.6	97	51.9	67.8	72.2	12.9	33.5	38.2	2.67	13	33.3	5.04	57.8	88.4	40.3	43.2	IC50 [8, 11]: 0.0873 µM; IC50 [9, 12]: 0.0188 µM; inhibition at 10 µM [7]: 53.5%
COc1ccc(CNC(=O)N[C@@H](Cc2ccccc2)C(=O)N[C@@H](CC(C)C)B(O)O)cc1 [Example 15, N-L-phenylalanyl-L-leucine borate-N′-(p-methoxy-benzylamine)-urea]	86.3	95.9	98.3	8.45	89.4	96.8	47.7	65	73.8	7.38	32.6	38.4	2.63	11	31.1	5.72	53.5	90.4	39.3	44.5	IC50 [8, 11]: 0.25 µM; IC50 [9, 12]: 0.036 µM; inhibition at 10 µM [7]: 51.8%
COc1ccc(OC)c(CNC(=O)N[C@@H](Cc2ccccc2)C(=O)N[C@@H](CC(C)C)B(O)O)c1 [Example 18, N-L-phenylalanyl-L-leucine borate-N′-(2,5-dimethoxy-benzylamine)-urea]	82.1	96.7	98.3	9.81	68.8	97.1	25.8	37.5	47.8	41.4	46.6	50	44.3	63.5	66	4.99	56.9	91	37.8	39.6	IC50 [8, 11]: 0.0528 µM; IC50 [9, 12]: 0.0106 µM; inhibition at 10 µM [7]: 46.5%
COc1ccc(OC)c(CNC(=O)N[C@@H](Cc2ccccc2)C(=O)N[C@@H](CC(C)C)B2OC3CC4CC(C4(C)C)[C@]3(C)O2)c1 (stereo partly drawn) [Example 19, N-L-phenylalanyl-L-leucine borate pinanediol ester-N′-(2,5-dimethoxy-benzylamine)-urea]	91.7	97.3	98.3	16.9	82.3	97.2	23.4	38.1	61.7	43.7	46.6	57.2	53.1	65.6	76.1	18.2	69.1	90.7	39.8	44	melting point: 88 to 90 °C; inhibition at 10 µM [7]: 55%
CC(C)C[C@H](NC(=O)[C@H](Cc1ccccc1)NC(=O)N1CCc2ccccc2C1)B(O)O [Example 28, N-L-phenylalanyl-L-leucine borate-N′-1,2,3,4-tetrahydroisoquinoline-urea]																					IC50 ([8]; read-out: IC50 HepG2): 0.00838 µM; IC50 [8, 11]: 0.0194 µM; IC50 [10]: 532 nM; IC50 ([9]; read-out: IC50 MGC803): 0.00498 µM; IC50 [9, 12]: 0.00396 µM; IC50 [2]: 20 nM; IC50 [6]: 2380 nM

Reference: US10494384B2, “Urea peptoid boric acid compound, pharmaceutical composition thereof, preparation method therefor, and uses thereof” (Peking University, priority 2015, dated 2019)
